Test results taken from ChEMBL document CHEMBL4270538, “Targeting prohibitin with small molecules to promote melanogenesis and apoptosis in melanoma cells” (Eur J Med Chem, 2018).
The source made the active and inactive calls. The calls are words filed in the database; no cut-off is given here.

What was measured:
MCF7 [1] = experiment: Inhibition of cell proliferation in human MCF7 cells at 1 uM after 72 hrs by MTS assay relative to control; format: functional; conditions: MCF7, 72 h
HBL [2] = experiment: Inhibition of cell proliferation in human HBL cells at 1 uM after 72 hrs by MTS assay relative to control; format: functional
[3] = target: RAC-alpha serine/threonine-protein kinase (Homo sapiens) (UniProt P31749); experiment: Inhibition of Akt phosphorylation in human HBL cells at 1 to 10 uM after 24 hrs by Western blot analysis; format: cell-based
KB [4] = experiment: Inhibition of cell proliferation in human KB cells at 1 uM after 72 hrs by MTS assay relative to control; format: functional
PC-3 [5] = experiment: Inhibition of cell proliferation in human PC3 cells at 1 uM after 72 hrs by MTS assay relative to control; format: functional; conditions: PC-3, 72 h
LNCaP [6] = experiment: Inhibition of cell proliferation in human LNCAP cells at 1 uM after 72 hrs by MTS assay relative to control; format: functional
[7] = target: Prohibitin-2 (Homo sapiens) (UniProt Q99623); experiment: Binding affinity to PHB2 in human HBL cells assessed as upregulation of MITF protein expression at 1 to 10 uM after 24 hrs by Western blot analysis; format: cell-based
HL-60 [8] = experiment: Inhibition of cell proliferation in human HL60 cells at 10 uM after 72 hrs by MTS assay relative to control; format: functional; conditions: HL-60, 72 h
HCT-116 [9] = experiment: Inhibition of cell proliferation in human HCT116 cells at 10 uM after 72 hrs by MTS assay relative to control; format: functional; conditions: HCT-116, 72 h
[10] = Inhibition of cell proliferation in human EPC cells at 1 uM after 72 hrs by MTS assay relative to control; format: functional
[11] = target: T1, Prohibitin 1 (Homo sapiens) (UniProt P35232); experiment: Downregulation of PHB1 in human HBL cells at 1 to 10 uM after 24 hrs by Western blot analysis; format: cell-based
T1 sequence (whole entry): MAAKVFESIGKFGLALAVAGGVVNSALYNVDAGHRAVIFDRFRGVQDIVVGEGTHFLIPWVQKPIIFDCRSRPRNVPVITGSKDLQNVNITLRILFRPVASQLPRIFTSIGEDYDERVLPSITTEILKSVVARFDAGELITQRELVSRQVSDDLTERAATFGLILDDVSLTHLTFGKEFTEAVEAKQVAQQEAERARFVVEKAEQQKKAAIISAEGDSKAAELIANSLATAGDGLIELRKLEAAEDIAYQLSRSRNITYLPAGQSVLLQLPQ

HL-60 [12] = experiment: Inhibition of cell proliferation in human HL60 cells at 1 uM after 72 hrs by MTS assay relative to control; format: functional; conditions: HL-60, 72 h
HCT-116 [13] = experiment: Inhibition of cell proliferation in human HCT116 cells at 1 uM after 72 hrs by MTS assay relative to control; format: functional; conditions: HCT-116, 72 h
PC-3 [14] = experiment: Inhibition of cell proliferation in human PC3 cells at 10 uM after 72 hrs by MTS assay relative to control; format: functional; conditions: PC-3, 72 h
LNCaP [15] = experiment: Inhibition of cell proliferation in human LNCAP cells at 10 uM after 72 hrs by MTS assay relative to control; format: functional
KB [16] = experiment: Inhibition of cell proliferation in human KB cells after 72 hrs by MTS assay; format: functional, cell-based
MCF7 [17] = experiment: Inhibition of cell proliferation in human MCF7 cells at 10 uM after 72 hrs by MTS assay relative to control; format: functional; conditions: MCF7, 72 h
HBL [18] = experiment: Inhibition of cell proliferation in human HBL cells at 10 uM after 72 hrs by MTS assay relative to control; format: functional
[19] = target: Prohibitin-2 (Homo sapiens) (UniProt Q99623); experiment: Induction of PHB2-mediated melanogenesis in human HBL cells assessed as pigmentation at 1 uM after 10 days relative to control; format: cell-based
HL-60 [20] = experiment: Inhibition of cell proliferation in human HL60 cells after 72 hrs by MTS assay; format: functional, cell-based; conditions: HL-60, 72 h
HT-29 [21] = experiment: Inhibition of cell proliferation in human HT-29 cells at 10 uM after 72 hrs by MTS assay relative to control; format: functional; conditions: HT-29, 72 h
[22] = target: Prohibitin-2 (Homo sapiens) (UniProt Q99623); experiment: Binding affinity to PHB2 in human HBL cells assessed as upregulation of tyrosinase protein expression at 1 to 10 uM after 24 hrs by Western blot analysis; format: cell-based
KB [23] = experiment: Inhibition of cell proliferation in human KB cells at 10 uM after 72 hrs by MTS assay relative to control; format: functional
[24] = Inhibition of cell proliferation in human EPC cells at 10 uM after 72 hrs by MTS assay relative to control; format: functional
[25] = target: Prohibitin-2 (Homo sapiens) (UniProt Q99623); experiment: Binding affinity to PHB2 in human HBL cells assessed as upregulation of ERK phosphorylation at 1 to 10 uM after 24 hrs by Western blot analysis; format: cell-based
[26] = target: Prohibitin-2 (Homo sapiens) (UniProt Q99623); experiment: Induction of PHB2-mediated melanogenesis in human HBL cells assessed as pigmentation at 10 uM after 10 days relative to control; format: cell-based
HT-29 [27] = experiment: Inhibition of cell proliferation in human HT-29 cells at 1 uM after 72 hrs by MTS assay relative to control; format: functional; conditions: HT-29, 72 h
[28] = target: Prohibitin-2 (Homo sapiens) (UniProt Q99623); experiment: Binding affinity to PHB2 in human HBL cells assessed as LC3-2 accumulation at 1 to 10 uM after 24 hrs by Western blot analysis; format: cell-based

Chain of Prohibitin-2 (Homo sapiens) (Q99623 whole entry): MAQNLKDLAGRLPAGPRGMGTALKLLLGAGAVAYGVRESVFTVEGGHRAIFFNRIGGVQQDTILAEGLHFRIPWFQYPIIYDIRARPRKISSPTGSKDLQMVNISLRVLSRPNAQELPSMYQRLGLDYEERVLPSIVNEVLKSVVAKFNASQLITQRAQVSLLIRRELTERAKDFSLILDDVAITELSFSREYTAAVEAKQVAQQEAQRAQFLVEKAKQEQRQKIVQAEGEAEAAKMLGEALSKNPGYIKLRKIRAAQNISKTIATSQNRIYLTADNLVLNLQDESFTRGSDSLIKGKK
Chain of RAC-alpha serine/threonine-protein kinase (Homo sapiens) (P31749 whole entry): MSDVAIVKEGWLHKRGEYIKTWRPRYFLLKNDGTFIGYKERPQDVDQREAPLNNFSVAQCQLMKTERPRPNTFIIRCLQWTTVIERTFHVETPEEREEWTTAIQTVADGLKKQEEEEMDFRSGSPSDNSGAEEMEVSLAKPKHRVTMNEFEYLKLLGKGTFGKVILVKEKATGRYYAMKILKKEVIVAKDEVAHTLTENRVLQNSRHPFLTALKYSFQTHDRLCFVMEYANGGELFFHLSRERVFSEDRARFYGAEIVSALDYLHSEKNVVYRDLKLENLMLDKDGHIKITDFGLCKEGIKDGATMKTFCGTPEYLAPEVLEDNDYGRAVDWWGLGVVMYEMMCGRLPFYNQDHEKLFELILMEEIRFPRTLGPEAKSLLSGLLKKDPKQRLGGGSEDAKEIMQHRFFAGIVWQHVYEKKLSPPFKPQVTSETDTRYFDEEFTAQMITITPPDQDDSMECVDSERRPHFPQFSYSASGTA

inhibition [3]: Active
Activity [7]: Active
Activity [11]: Active
IC50 (KB [16]): 33 µM
fold change (FC) [19]: 1.05
IC50 (HL-60 [20]): 15 µM
Activity [22]: Active
Activity [25]: Active
fold change (FC) [26]: 1.25
Activity [28]: Active
SMILES: NCCOCCOCCNc1nc(NCc2cccc(F)c2)nc(Oc2c(F)c(F)c(F)c(F)c2F)n1
inhibition at 1 µM (MCF7 [1]): 11%
inhibition at 1 µM (HBL [2]): 9%
inhibition at 1 µM (KB [4]): 29%
inhibition at 1 µM (PC-3 [5]): 15%
inhibition at 1 µM (LNCaP [6]): 11%
inhibition at 10 µM (HL-60 [8]): 59%
inhibition at 10 µM (HCT-116 [9]): 36%
inhibition at 1 µM [10]: 27%
inhibition at 1 µM (HL-60 [12]): 31%
inhibition at 1 µM (HCT-116 [13]): 10%
inhibition at 10 µM (PC-3 [14]): 52%
inhibition at 10 µM (LNCaP [15]): 32%
inhibition at 10 µM (MCF7 [17]): 27%
inhibition at 10 µM (HBL [18]): 18%
inhibition at 10 µM (HT-29 [21]): 20%
inhibition at 10 µM (KB [23]): 89%
inhibition at 10 µM [24]: 58%
inhibition at 1 µM (HT-29 [27]): 12%
